The text below walks through data of article PMC11390726, “Automated design of multi-target ligands by generative deep learning” (Nature Communications, 2024).

In test [1] the target is T1, AT1 (Homo sapiens, UniProt P30556).
T1 construct: expressed in transfected cells
T1 sequence (P30556 1-359): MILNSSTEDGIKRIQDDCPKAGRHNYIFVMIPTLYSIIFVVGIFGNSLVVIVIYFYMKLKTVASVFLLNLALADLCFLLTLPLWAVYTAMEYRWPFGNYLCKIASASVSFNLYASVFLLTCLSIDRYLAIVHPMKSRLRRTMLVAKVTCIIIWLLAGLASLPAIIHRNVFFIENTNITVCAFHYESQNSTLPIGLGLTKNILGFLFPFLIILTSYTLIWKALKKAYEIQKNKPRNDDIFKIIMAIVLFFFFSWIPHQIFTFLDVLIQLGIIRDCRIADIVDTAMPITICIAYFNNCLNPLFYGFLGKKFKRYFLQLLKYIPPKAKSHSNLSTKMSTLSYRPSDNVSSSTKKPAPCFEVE
The arrangement: method as in earlier work. The settings on record: fine-tuning set; BindingDB; read-out: potency on target (IC50 for AT1); cited from earlier work.

The test system of test [2] is PPARδ. The arrangement: method as in earlier work. Particulars: fine-tuning set; BindingDB; read-out: potency on target (EC50 for PPARδ); cited from earlier work.
Another test relates to THRβ. The arrangement: method as in earlier work. Particulars: fine-tuning set; BindingDB; read-out: potency on target (EC50 for THRβ); cited from earlier work.
In test [3] the target is T2, PPARδ (Homo sapiens, UniProt Q03181).
T2 construct: expressed in transfected cells; host or cells: HEK293T
T2 sequence (Q03181 211-439 limits assumed): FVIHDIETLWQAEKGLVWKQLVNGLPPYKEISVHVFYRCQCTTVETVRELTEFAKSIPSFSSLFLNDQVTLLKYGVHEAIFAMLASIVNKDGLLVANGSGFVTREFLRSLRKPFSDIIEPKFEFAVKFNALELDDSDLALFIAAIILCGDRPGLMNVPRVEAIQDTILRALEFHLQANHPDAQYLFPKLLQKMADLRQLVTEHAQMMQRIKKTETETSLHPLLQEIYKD
The test can be described thus: Gal4-hybrid reporter gene assay PPARδ. The format is cell-based. Particulars: mean, n ≥ 3. From the text: (§1) Compound 7 was originally designed with tert-butyloxy motif which was replaced by tert-butyl for improved chemical stability. The dual ligand candidates were characterized in functional assays for the targets of interest using cellular Gal4-hybrid reporter gene assays[43] to determine FXR, THRβ and PPARδ modulation and an enzyme activity assay[44] with the fluorogenic substrate PHOME to test sEH inhibition (Table 1). In vitro characterization of the CLM designed dual FXR/sEH modulators 1–3 confirmed engagement of both targets by all three compounds with sub-micromolar to low micromolar potencies. […] All designed PPARδ/sEH modulators (7–9) were confirmed as dual ligands of the intended targets. 7 emerged as remarkably potent sEH inhibitor endowed with micromolar PPARδ agonist activity.
HEK293T cells (ATCC, CRL-1573) were cultured in Dulbecco’s modified eagle medium (DMEM), high glucose, supplemented with 10% FCS, sodium pyruvate (1 mM), penicillin (100 U/mL), and streptomycin (100 µg/mL) to 70–80% confluence at 37 °C and 5% CO2 and seeded in clear 96-well plates with a density of 40,000 cells/well. After 24 h, the medium was changed to Opti-MEM without supplements. Transient transfection was performed using Lipofectamine LTX reagent (Invitrogen, Carlsbad, CA, USA) according to the manufacturer’s protocol with pFR-Luc (100 ng/well) as reporter plasmid, pRL-SV40 (2 ng/well) for normalization of transfection efficiency and cell growth, and one pFA-CMV-hNR-LBD clone coding for the hinge region and ligand binding domain (LBD) of the NR of interest. […] After overnight (14–16 h) incubation, luminescence was measured using the Dual-Glo® Luciferase Assay System (Promega, Madison, WI, USA) according to the manufacturer’s protocol with a Tecan Spark® 10 M multimode microplate reader. Relative light units (RLU) for normalization of transfection efficiency and cell growth were calculated by dividing firefly luminescence by renilla luminescence and multiplication by 1000. […]

For a further test, the target named is T3, sEH (Homo sapiens, UniProt P34913).
T3 construct: His tag (inferred from HisTrap purification with imidazole elution); made in house; own inference
T3 sequence (P34913 1-555): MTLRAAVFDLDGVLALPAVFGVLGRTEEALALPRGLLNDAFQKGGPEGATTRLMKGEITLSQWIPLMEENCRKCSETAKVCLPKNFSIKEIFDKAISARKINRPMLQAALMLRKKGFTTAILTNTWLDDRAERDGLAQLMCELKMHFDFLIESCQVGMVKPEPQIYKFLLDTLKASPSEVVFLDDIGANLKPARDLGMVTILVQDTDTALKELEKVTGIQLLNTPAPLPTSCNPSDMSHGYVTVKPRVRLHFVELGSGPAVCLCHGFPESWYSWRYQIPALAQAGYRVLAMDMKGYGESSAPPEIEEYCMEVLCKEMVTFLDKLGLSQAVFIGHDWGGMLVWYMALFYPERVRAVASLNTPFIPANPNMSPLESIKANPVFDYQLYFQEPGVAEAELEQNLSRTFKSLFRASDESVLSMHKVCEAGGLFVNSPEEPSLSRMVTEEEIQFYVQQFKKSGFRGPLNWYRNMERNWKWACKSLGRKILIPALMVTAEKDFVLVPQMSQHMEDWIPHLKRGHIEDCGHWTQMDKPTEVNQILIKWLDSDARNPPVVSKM
The test can be described thus: sEH enzyme activity assay with fluorogenic substrate PHOME. Particulars: mean, n ≥ 3. Type of test: biochemical.
Description: as §1
Soluble epoxide hydrolase (sEH) was purified as described by Hahn et al.[68] and Lukin et al.[69], respectively. Protein expression was carried out in 500 ml ZYP5052 autoinduction medium containing Kanamycin (100 mg/L) with lactose uptake-dependent induction. The fermentation procedure started at 37 °C and 200 rpm until the OD600 reached approximately 1.0. Then the temperature was reduced to 16 °C. After 24–36 h the cells (OD600 ≈ 15.0) were harvested by centrifugation at 5000 × g (4 °C, 20 min). Pellets were resuspended in a resuspension buffer containing Tris (50 mM), NaCl (0.5 M) and MgCl2 (10 mM) at pH 8 and sonicated twice for 15 s on ice. The sonicated suspension was centrifuged (18,000 × g, 30 min, 4 °C) and the supernatant was ultracentrifuged (100,000 × g, 1 h 10 min, 4 °C). The ultracentrifugation supernatant was loaded on a 5 ml HisTrap® FF (GE Healthcare, München, Germany) column at a flow rate of 2 ml/min and washed with washing buffer containing Tris (50 mM), NaCl (0.5 M), MgCl2 (10 mM), imidazole (20 mM) and DTT (3 mM) at pH 8, and eluted at 120 mM imidazole. The fractions containing hsEH after SDS-PAGE fraction analysis were pooled. The identity of hsEH was confirmed by Western Blotting and hsEH hydrolase activity assay. The inhibitory potency of the compounds was determined using a fluorescence-based enzyme activity assay in which PHOME (3-phenyl-cyano(6-methoxy-2-naphthalenyl)methylester-2-oxiraneacetic acid) is metabolized by sEH hydrolase towards a fluorescent naphthalene aldehyde. Dilution series of the compounds were incubated for 30 min with recombinant sEH (final protein concentration 3 nM). Subsequently, the fluorogenic substrate PHOME at final concentration of 50 μM was added, and the fluorescence was measured every minute for 45 min using a Tecan plate reader (ex: 360 nm, em: 465 nm; bandwidth 35 nm). Inhibition in percent was plotted against the logarithmic test compound concentration and IC50-values were calculated using the “log(Inhibitor) vs. Response – Variable slope (four parameters)” equation in GraphPad Prism 7.

In test [4] the target is T1, AT1. The test can be described thus: IP-One assay for AT1 in stably transfected CHO-K1 cells. Type of test: cell-based. Particulars: cellular IP-One assay; mean, n ≥ 3. How it is done:
(§2) CHO-K1 cells (DSMZ, ACC110) were cultured at 5% CO2 and 37 °C in full growth medium (Ham’s F-12 medium supplemented with 10% fetal calf serum (FCS), penicillin (100 U/mL) and streptomycin (100 µg/mL)). For harvesting cells were incubated with Trypsin/EDTA. IP-One assay for AT1 and FFAR1. To investigate the ligand dependent activation of the two GPCRs, inositol mono-phosphate (IP-One) accumulation was monitored using an HTRF based displacement assay between FRET acceptor coupled IP-One and Terbium cryptate coupled anti-IP-One antibody (IP-One assay kit, Cisbio Bioassays, Codolet, France). AT1: the IP-One assay for AT1 was performed according to the protocol published by Hernandez-Olmos et al.[66] In brief, by using the sleeping beauty method a CHO-K1 cell line was generated which stably overexpresses AT1 isoform 1 and GNA11 (G-protein subunit α 11) as well as cells only overexpressing the GNA11 without any GPCR, as control. Cells were seeded into white tissue culture 384-well plates (Greiner Bio-One, Frickenhausen, Germany) at 15,000 cells/well and incubated overnight at 37 °C and 5% CO2. […] Antagonist activity of compounds was measured with parallel stimulation with 10 nM [Val5]-Angiotensin II. […] A full dose-response curve with FFAR1 reference agonist GW9508 was measured as control for assay performance. […]

A further test concerns the target T4, FFAR1 (Homo sapiens, UniProt O14842).
T4 construct: expressed in transfected cells
Put plainly: IP-One assay for FFAR1 in stably transfected CHO-K1 cells. Type of test: cell-based. The settings on record: cellular IP-One assay; mean, n ≥ 3. How it is done: as §2

“Also recorded” adds a separate entry of the source.

T4 sequence (O14842 whole entry): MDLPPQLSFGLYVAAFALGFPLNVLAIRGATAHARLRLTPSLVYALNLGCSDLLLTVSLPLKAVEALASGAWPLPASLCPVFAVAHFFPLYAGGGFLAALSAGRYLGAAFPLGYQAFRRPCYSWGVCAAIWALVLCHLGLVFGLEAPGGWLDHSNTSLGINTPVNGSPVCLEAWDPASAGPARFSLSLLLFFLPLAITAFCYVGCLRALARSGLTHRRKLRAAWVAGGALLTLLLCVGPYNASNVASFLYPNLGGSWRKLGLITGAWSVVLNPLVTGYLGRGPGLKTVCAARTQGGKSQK

For the compound `CCCCc1cnc(C(=O)O)n1Cc1ccc(-c2ccccc2C)cc1`, the 50% inhibitory concentration (IC50) on AT1 [1] is 3 nM. `CCCCc1ncc(/C=C(\Cc2cccs2)C(=O)O)n1Cc1ccc(C(=O)O)cc1`: on AT1 [1], the IC50 is 2 nM.

Turning to `CCO[C@H](COc1ccc(C(F)(F)F)cc1)CSc1ccc(OCC(=O)O)c(C)c1`, the 50% effective concentration (EC50) with PPARδ [2] was 2 nM. With `CC(C)c1cc(Oc2c(Cl)cc(-n3nc(C#N)c(=O)[nH]c3=O)cc2Cl)nn(C)c1=O`, the 50% effective concentration (EC50) in the test with THRβ is 40 nM. As for `CC(C)c1cc(Oc2c(Cl)cc(NC(=O)C(=O)O)cc2Cl)n[nH]c1=O`, the concentration giving a half-maximal response (EC50) with THRβ was 120 nM.

In the case of `COc1ccc2c(c1OCc1ccccc1)CC(C(=O)O)N(C(=O)C(c1ccccc1)c1ccccc1)C2` (stereo not shown), the IC50 on AT1 [1] is 1000 nM. Turning to `Cc1c(CC(=O)O)c2ccccc2n1Cc1ccc(O)c(C(C)C)c1`, the EC50 in the test on THRβ was 150 nM. In the case of `Cc1cc(SCc2sc(-c3ccc(C(F)(F)F)cc3)nc2C)ccc1OCC(=O)O`, the EC50 in the test with PPARδ [2] is […].

With `CC(C)c1onc(-c2c(Cl)cccc2Cl)c1COc1ccc(CNc2ccc(CC(=O)O)cc2)c(Cl)c1`, in the test with PPARδ [2], the EC50 is 2000 nM.

Consider `O=C(O)Cc1cc(Cl)c(Oc2ccc(O)c(C(=O)NCC(c3ccccc3)c3ccccc3)c2)c(Cl)c1`, for which, in the test on THRβ, the EC50 is 0.5 nM. On PPARδ [3], `CC(C)(C)c1ccc(NC(=O)N[C@H]2CC[C@H](Oc3ccc(CCC(=O)O)cc3)CC2)cc1` [Compound 7] had an EC50 of 10000 nM. The compound further came in with a half-maximal inhibitory concentration (IC50) on sEH of 17 nM. For `O=C(O)CCc1ccc(OC2CCCN(C(=O)NCc3c(Cl)cc(Cl)cc3Cl)CC2)cc1` (stereo not shown) [Compound 8], the “PPARδ: fold act. at 80 µM” value on PPARδ [3] came out at 6.7 fold. Moreover, the IC50 on sEH turned out to be 200 nM.

With `O=C(O)CCc1ccc(OC2CCN(C(=O)NCc3c(Cl)cc(Cl)cc3Cl)CC2)cc1` [Compound 9], the “PPARδ: fold act. at 80 µM” value at PPARδ [3] is 3.0 fold. The compound also registered a half-inhibitory concentration (IC50) at sEH of 270 nM. As for `O=C(O)c1ccc(OC2CCCN(C(=O)NCc3ccc(Cl)cc3Cl)CC2)cc1` (stereo not shown) [Compound 10], the “AT1: activity” value at AT1 [4] was “inactive”. The compound further came in with an IC50 against sEH of 20 nM. For the compound `CCC(c1ccc(C(=O)O)cc1)c1cccc(NC(=O)Nc2ccc(OC(F)(F)F)cc2)c1` (stereo not shown) [Compound 11], the “FFAR1: activity” value on FFAR1 is “inactive”. At sEH, this compound yielded a half-inhibitory concentration (IC50) of 61 nM. In the case of `CC#CC(CC(=O)O)c1ccc(OCc2cccc(-c3ccccc3C(=O)O)c2)cc1` (stereo not shown) [Compound 12], the EC50 on FFAR1 was 8500 nM. The “AT1: activity” value at AT1 [4] is “no effect; also recorded: inactive”.

By IC50 is commonly meant the midpoint of a concentration-inhibition curve. The EC50 is the concentration that produces a half-maximal response.
